Experiments:
[1] = tested on: mice irradiated with simulated solar UV radiation (SSUV); assay: Erythema/oedema as mid-dorsal skinfold thickness after simulated solar UV radiation; format: in vivo
Experimental: (§1) 1.1 Solar simulated radiation (SSUV) was produced from a filtered fluorescent tube source, and was administered at the rate of 1 MED daily for 3Days.
1.2 Erythema was measured as a mid-dorsal skinfold thickness, which comprises mostly the oedema component of erythema.
(§2) Carnosine incorporated into cosmetic creams at 0.1% and 1.00%, was compared with a cream containing 0.1% acetylcarnosine and a control cream containing neither carnosine nor acylcarnosine. The creams were applied daily (100 μl per mouse) immediately following irradiation with 1 MED of simulated solar UV radiation on 3 consecutive days only.
The sunburn (erythema) response was measured in mice by the oedema component at the peak of the erythema (48 h after the first UV exposure).

[2] = tested on: mice irradiated with simulated solar UV radiation (SSUV); assay: Contact hypersensitivity to oxazolone after SSUV irradiation (ear swelling); format: in vivo; conditions: 0.1% cream; in words
Experimental: as §1
1.3 Contact hypersensitivity was induced by application of 100 μl 0.2% w/v oxazolone in ethanol, to the abdominal skin of groups of 6 mice. The mice were challenged by application of 5 μl of fresh oxazolone/ethanol to each surface of both pinnae one week later, and the ear swelling response was measured 24 h later.
as §2

[3] = tested on: collagen in human fibroblasts; assay: Collagen cross-linking by UV (solar) irradiation in human fibroblasts in vitro; format: cell-based; conditions: 1-2 μM
From the text: (§3) 1.4 Collagen cross-linking by UV (solar) irradiation was achieved as described in WO 90/06102.

[4] = tested on: collagen in mouse fibroblasts; assay: Collagen cross-linking by UV (solar) irradiation in mouse fibroblasts in vitro; format: cell-based; conditions: 1-2 μM
From the text: as §3

collagen in mouse skin = assay: Collagen cross-linking by UV (solar) irradiation in mouse skin; conditions: 1-2 μM
From the text: as §3

CC(=O)NCCC(=O)N[C@@H](Cc1cnc[nH]1)C(=O)O [acetylcarnosine, N-acetylcarnosine]
% increase in skinfold thickness ([1]; 0.1% cream, 100 μl per mouse daily immediately after 1 MED SSUV on 3 days, measured at 48 h, base + SSUV 30.2): 11.3%
sunburn (erythema) response, oedema component at peak of erythema ([1]; creams applied after SSUV, 48 h after the first UV exposure, in words): significant reduction
protection against suppression of contact hypersensitivity resulting from UV irradiation [2]: totally prevented
inhibition of cross linking of collagen by UV (solar) irradiation [3]: completely inhibited
inhibition of cross linking of collagen by UV (solar) irradiation [4]: completely inhibited
inhibition of cross linking of collagen by UV (solar) irradiation (collagen in mouse skin): completely inhibited

Reference: patent US20030118525A1, “Treatment of uv induced immunosuppression” (priority 2000, published 2003)
